# From US6403574B1, “Azetidinecarboxamide derivatives for treating CNS disorders” (Vernalis Research Limited, priority 1998, dated 2002)
# Columns and labels:
# [1] = tested on: elevated zero-maze model of anxiety; assay: Anxiolytic activity in the elevated zero-maze model; assay type: in vivo, rat; conditions: dose of 30 mg/Kg, orally 1 hour prior to zero-maze testing
# Text: Measurement of Anxiolytic Activity in Mice Using the Elevated Zero-maze Model
# Food and water are made freely available.
# The maze is cleaned with a 5% methanol/water solution and dried thoroughly between test sessions.
# [2] = tested on: 3-MPA-induced seizures in T/O strain mice; assay: Antagonism of 3-MPA-induced seizures; assay type: in vivo, mouse; conditions: test drug 30 mg/kg p.o. 60 min before 3-MPA i.v.
# Procedure: Antagonism of 3-MPA-Induced Seizures Several animal seizure models are available for the screening and characterisation of anticonvulsant (antiepileptic) drugs. Most models employ a chemical convulsant to induce seizures and the anticonvulsant potencies of novel compounds are measured in terms of their ability to increase the dose of convulsant required to induce a seizure response (or to prolong the latency to seizure onset following a bolus dose of the convulsant). Most chemical convulsants work by blocking the neurotransmitter function of gamma-aminobutyric acid (GABA), the predominant inhibitory neurotransmitter in the mammalian brain. This can be achieved by blocking the postsynaptic action of GABA using pentylenetetrazol or bicuculline, or via a presynaptic action using a GABA synthesis inhibitor to decrease GABA release into the synapse. In this case, the inhibitor of glutamate decarboxylase (GAD), 3-mercaptopropionic acid (3-MPA), was used as the convulsant challenge agent. […] Male albino T/O strain mice (obtained from Tuck) weighing 28-40 g were used in these studies. Animals were assigned randomly to treatment groups and vehicle or test drug (at a dose of 30 mg/kg) were administered p.o. to groups of 12 animals 60 min before the administration of a bolus dose of 3-MPA intravenously. Immediately following 3-MPA administration, each mouse was placed individually into a cage for observation. The seizure response of each animal was scored quantally as present or absent (response or non-response) during the 5 min period immediately following 3-MPA administration. A seizure response was defined as the onset of the initial clonic phase of the seizure (abrupt loss of righting reflex accompanied by vocalisation). The seizure threshold (in terms of mg/kg i.v. of 3-MPA required to evoke a seizure response) was determined in each treatment group by a sequential up/down method followed by modified probit analysis of the quantal data. A range of doses of 3-MPA was prepared (12.5-200.0 mg/kg i.v.) increasing by a constant geometric factor […], which was found in pilot studies to generate suitable data for analysis by this method. In these studies, 3-MPA was obtained from Sigma. Test compounds were prepared as solutions dissolved in 45% w/v aqueous 2-hydroxypropyl-β-cyclodextrin. 3-MPA was dissolved in isotonic saline and its pH adjusted to 6 using 1M sodium hydroxide solution. Drugs were administered in a dose volume of 10 ml/kg body weight. SC=seizure threshold after treatment with test drug SV=seizure threshold in vehicle treated group
# [3] = target: GABAA receptor; assay: Binding affinity to the GABAA receptor with [35S]-TBPS; conditions: membranes from rat fore-brain; [35S]-TBPS 1 nM; read-out: IC50, concentration required to displace 50% of the specific [35S]-TBPS binding
# Procedure: Measurement of Binding Affinity to the GABAA Receptor with [^35S]-TBPS
# The ability of test compounds to bind to the GABAA receptor was measured in membranes prepared from rat fore-brain using the procedure described by Green et al (Green, A. R., Misra, A., Murray, T. K., Snape, M. F. & Cross, A. J. Neurophamacology, 1996, 35, 1243-1250).
# Binding assays were performed in plastic microtitre plates. In each study total assay volume contained [^35S]-TBPS (1 nM final concentration), membrane preparation and displacing drugs where appropriate. Drug solutions were prepared at a concentration of 10 mM in an appropriate solvent (EtOH, DMSO or H2O) and then diluted with assay buffer. Non-specific binding was determined using GABA. The free ligand concentration was determined by counting aliquots of the [^35S]-TBPS solution. The concentration of test compounds required to displace 50% of the specific binding (IC50) was determined from displacement curves.
melting point,Structure (SMILES),other results
63 °C,C=CCNC(=O)N1CC(OCc2ccccc2C(F)(F)F)C1 [Example 28],
75 °C,C=CCNC(=O)N1CC(OCc2cc(F)ccc2F)C1 [Example 29],
100 °C,C=CCNC(=O)N1CC(OCc2ccc(Cl)cc2Cl)C1 [Example 30],
79 °C,C=CCNC(=O)N1CC(OCc2cc(F)cc(F)c2)C1 [Example 31],
82.5 to 85 °C,C=CCNC(=O)N1CC(OCc2ccc(F)c(F)c2)C1 [Example 33],
91 to 92.5 °C,C=CCNC(=O)N1CC(OCc2ccc(F)cc2F)C1 [Example 34],
80.5 to 81.5 °C,C=CCNC(=O)N1CC(OCc2cc(C(F)(F)F)cc(C(F)(F)F)c2)C1 [Example 35],
76 to 78 °C,C[C@H](O)CNC(=O)N1CC(OCc2ccc(Cl)cc2)C1 [Example 36],
123 to 124 °C,C#CCNC(=O)N1CC(OCc2ccc(Cl)cc2)C1 [Example 37],
94 to 96 °C,C#CCNC(=O)N1CC(OCc2ccc(C(C)(C)C)cc2)C1 [Example 38],
72 to 73 °C,C[C@@H](O)CNC(=O)N1CC(OCc2ccc(F)cc2)C1 [Example 40],
79 to 80 °C,C=CCNC(=O)N1CC(OCc2ccc(C(C)(C)C)cc2)C1 [Example 41],
94 to 96 °C,C#CCNC(=O)N1CC(OCc2ccc(F)cc2)C1 [Example 43],

# Further lines, the compound ahead of its results:
Structure (SMILES),melting point,other results
"C=CCNC(=O)N1CC(OCc2ccc(Cl)cc2)C1 [Example 1, 3-(4-Chlorobenzyloxy)-N-(2-propenyl)azetidine-1-carboxamide]",110 to 111 °C,Anxiolytic activity (increase in the frequency of head dips) [1]: effective; SC = seizure threshold after treatment with test drug [2]: 35.98 mg/kg i.v. of 3-MPA
"C=CCNC(=O)N1CC(OCc2ccc(Cl)c(Cl)c2)C1 [Example 2, 3-(3,4-Dichlorobenzyloxy)-N-(2-propenyl)azetidine-1-carboxamide]",88 to 89 °C,IC50 [3]: 56 µM; SC = seizure threshold after treatment with test drug [2]: 66.7 mg/kg i.v. of 3-MPA
"C=CCNC(=O)N1CC(OCc2cccc(C(F)(F)F)c2)C1 [Example 3, 3-(3-(Trifluoromethyl)benzyloxy)-N-(2-propenyl)azetidine-1-carboxamide]",108 °C,IC50 [3]: 87 µM; SC = seizure threshold after treatment with test drug [2]: 129.3 mg/kg i.v. of 3-MPA
"C=CCNC(=O)N1CC(OCc2ccc(C(F)(F)F)cc2)C1 [Example 4, 3-(4-(Trifluoromethyl)benzyloxy)-N-(2-propenyl)azetidine-1-carboxamide]",120 °C,IC50 [3]: 91 µM; SC = seizure threshold after treatment with test drug [2]: 75.7 mg/kg i.v. of 3-MPA
"C=CCNC(=O)N1CC(OCc2ccc(F)cc2)C1 [Example 5, 3-(4-Fluorobenzyloxy)-N-(2-propenyl)azetidine-1-carboxamide]",,SC = seizure threshold after treatment with test drug [2]: 42.8 mg/kg i.v. of 3-MPA
"C=CCNC(=O)N1CC(OC(c2ccc(Cl)cc2)c2ccc(Cl)cc2)C1 [Example 6, 3-(Bis(4-chlorophenyl)methoxy)-N-(2-propenyl)azetidine-1-carboxamide]",,IC50 [3]: 64 µM
"C[C@@H](O)CNC(=O)N1CC(OC(c2ccc(Cl)cc2)c2ccc(Cl)cc2)C1 [Example 7, (R)-3-(Bis(4-chlorophenyl)methoxy)-N-(2-hydroxypropyl)azetidine-1-carboxamide]",,IC50 [3]: 32 µM
C=CCNC(=O)N1CC(OCc2ccc(C#N)cc2)C1 [Example 10],95 to 96 °C,
C=CCNC(=O)N1CC(OCc2ccc(-c3ccccc3)cc2)C1 [Example 11],160 °C,
C=CCNC(=O)N1CC(OCc2ccc3ccccc3c2)C1 [Example 12],141 to 142 °C,
CCCNC(=O)N1CC(OCc2ccc(Cl)c(Cl)c2)C1 [Example 13],89 to 90 °C,
C=CCNC(=O)N1CC(OCc2cccc(Cl)c2)C1 [Example 14],67 to 68 °C,
C=CCNC(=O)N1CC(OCc2cccc(F)c2)C1 [Example 15],59 to 60 °C,
CCCNC(=O)N1CC(OCc2ccc(C(F)(F)F)cc2)C1 [Example 16],128 to 129 °C,
CCCNC(=O)N1CC(OCc2cccc(C(F)(F)F)c2)C1 [Example 17],62 to 63 °C,
C[C@H](O)CNC(=O)N1CC(OCc2cccc(C(F)(F)F)c2)C1 [Example 18],67 to 68 °C,
C[C@@H](O)CNC(=O)N1CC(OCc2cccc(C(F)(F)F)c2)C1 [Example 19],67 to 68 °C,
C[C@@H](O)CNC(=O)N1CC(OCc2ccc(C(F)(F)F)cc2)C1 [Example 20],97 to 98 °C,
C[C@H](O)CNC(=O)N1CC(OCc2ccc(C(F)(F)F)cc2)C1 [Example 21],97 to 98 °C,
C[C@@H](O)CNC(=O)N1CC(OCc2ccc(Cl)c(Cl)c2)C1 [Example 22],88 to 89 °C,
C[C@H](O)CNC(=O)N1CC(OCc2ccc(Cl)c(Cl)c2)C1 [Example 23],88 to 89 °C,
C[C@H](O)CNC(=O)N1CC(OCc2ccc(Cl)cc2)C1 [Example 24],85 to 86 °C,
C#CCNC(=O)N1CC(OCc2cccc(C(F)(F)F)c2)C1 [Example 25],90 to 91 °C,
C=CCNC(=O)N1CC(OCc2ccccc2)C1 [Example 26],76 to 77 °C,
C[C@H](O)CNC(=O)N1CC(OCc2ccc(F)cc2)C1 [Example 27],73 to 74 °C,
